Where “and” joins values, the source holds several entries; their conditions need not be identical. Identical values can stand only once. Like-named read-outs stand apart in the source and are kept apart here.
Experiments:
[1] = tested on: Plasmodium falciparum W2 strain (CQ-resistant); assay: In vitro antiplasmodial activity, SYBR test; format: cell-based; settings: for SI (selectivity index): ratio between cytotoxic (WI-26-VA4) and antiplasmodial (W2) activities
Method: Continuous culture was maintained as previously described. In vitro antiplasmodial activity of the seven compounds against the P. falciparum culture was evaluated using the SYBR test as previously described. Compounds were diluted to concentrations ranging from 10 to 0.0001 μM. […] The plate was read in a fluorometer (Fluoroskan Ascent, Thermo Laboratories) with excitation at 485 nm and an emission of […]. All experiments were performed in triplicate. The results were expressed as the mean of minimum lethal dose for 50% of the culture (IC50).
Selectivity index (SI) is the ratio between the cytotoxic and antiplasmodial activities of each compound tested. The values greater than 10 were considered indicative of lack of cytoxicity, whereas the substances with values below 10 were considered toxic.

[2] = tested on: Plasmodium berghei ANKA; assay: Curative test in the mouse model of experimental cerebral malaria; format: in vivo, C57BL/6 mice infected with P. berghei ANKA; settings: for % Reduction of parasitemia, 7th dpi / Parasitemia ± SD, 7th dpi / % Reduction of parasitemia, 5th dpi / Parasitemia ± SD, 5th dpi: 10 mg/Kg oral, day 3 to 7 p.i.
[3] = tested on: human pulmonary fibroblast cells WI-26VA4; assay: In vitro cytotoxicity on mammalian cells, MTT assay; format: cell-based; settings: read-out: WI-26-VA4 IC50 ± SD
Method: In vitro cytotoxicity of the compounds was assessed against human pulmonary fibroblast cells WI-26VA4 (ATCC CCL-95.1, USA), by 3-(4,5-dimethyl-2-thiazolyl)-2, 5-diphenyl-2H-tetrazolium bromide (MTT assay). Cells were cultured in a RPMI-1640 medium supplemented with 10% heat-inactivated fetal bovine serum in a 96-well plate. Compounds were diluted in different concentrations ranging from 100 to 1 μM and incubated with the cells for 48 h in a 5% CO2 atmosphere at 37 °C. The optical density was determined at 540 nm […] (Spectra Max340PC384, Molecular Devices, Sunnyvale, CA, USA). The minimum lethal dose for 50% of the cells (IC50) was determined as previously described.

[4] = tested on: Plasmodium berghei ANKA; assay: Suppressive modified test in the mouse model of experimental cerebral malaria; format: in vivo, C57BL/6 mice infected with P. berghei ANKA; settings: for % Reduction of parasitemia, 5th dpi / Parasitemia ± SD, 5th dpi / % Reduction of parasitemia, 7th dpi / Parasitemia ± SD, 7th dpi: suppressive test, 10 mg/Kg oral for five days from 4 h after infection
Method: The animals (n = 5/cage) were housed in ALESCO® climate-controlled cabinets with controlled air flow, a temperature of 22 ± 2 °C and light control, respecting the animals’ circadian rhythm (light/dark cycle of 12 h), with standard rodent food and water ad libitum.
To carry out the proposed experiments, the murine model of ECM was used to assess the antimalarial activity of the compounds. Plasmodium berghei ANKA was kindly provided by Claudio Romero Marinho (Federal University of São Paulo-Brazil), and was used to conduct the infections which were performed by intraperitoneal (i.p.) injection of 10^5 parasitized red blood cells (pRBCs) obtained from infected donor mice, as previously described. Reduced responsiveness to external stimuli, ataxia, paralysis, coma, and/or convulsions were considered clinical signals of ECM [44].
In the suppressive modified test, mice were treated daily by oral gavage for five consecutive days, starting four hours after infection.
Parasitemia was monitored using giemsa-stained blood smears and the inhibition of parasite multiplication (IPM) was calculated by the formula: [(A–B)/A] × 100, where A = parasitemia of the PbA, and B = parasitemia of the group treated with the compounds. The clinical symptoms were evaluated using the rapid murine coma and behavior scale (RMCBS) from day 5 p.i. being maintained until the end of experimentation. The RMCBS consists of 10 parameters (gait, balance, motor performance, body position, limb strength, touch escape, pinna reflex, toe pinch, aggression, and grooming). Each parameter is scored 0 to 2, with 0 being the lowest function and 2 being the highest. Animals with clinical score ≤ 5 were euthanized. The survival rate (SR) was calculated based on the number of alive animals after 14 days of clinical evaluation. […]

[5] = tested on: NO production in murine peritoneal macrophages; assay: NO production by LPS/IFN-γ stimulated macrophages, Griess method; format: cell-based, BALB/c mice; settings: macrophages stimulated with LPS and IFN-γ, 18 to 150 μM, 48 h, p < 0.05
Method: NO production was determined in the culture supernatants of macrophages after being incubated for 48 h in the presence of compound 10 ([…]) and stimulated with LPS at 1 μg/mL and IFN-γ at 1 ng/mL. Negative control was stimulated with LPS and IFN-γ and treated with 0.06% DMSO (vehicle). The cells were incubated for 48 h at 37 °C and 5% CO2 atmosphere. Subsequently, NO production was evaluated by the Griess method (an indirect NO measurement by nitrite dosing) in the recovered culture supernatant from the 48 h stimuli and treatment as described by. The quantity of NO (μM) was determined by comparison with a standard sodium nitrite solution. The spectrophotometric measurement was performed at 540 nm and the experiment was performed in triplicate.

[6] = tested on: peritoneal macrophages of BALB/c mice; assay: Cytotoxicity on peritoneal macrophages, MTT method; format: cell-based; settings: 18 to 150 μM, 48 h
Method: Macrophages obtained from the peritoneal cavity of BALB/c mice previously inoculated with 3% thioglycollate medium for the evaluation of cell viability were used. The macrophages were seeded in culture bottles with a RPMI-1640 medium supplemented with 2 mM L-glutamine, 100 µg/mL antibiotics (streptomycin and penicillin), 5% fetal bovine serum (FBS) and kept in an incubator at 5% CO2 atmosphere at 37 °C until the day of the test. The protocol was approved by the Ethical Committee for Animal Research of Federal University of Juiz de Fora (n° 007/2018-CEUA).
Cytotoxicity was assessed by cell viability using the MTT method. Briefly, the macrophages at 2 × 10^6 cells/well were transferred to 96-well microplates and treated with compound 10 at concentrations of 18 to 150 μM. For the negative control, cells were treated only with 0.06% DMSO (vehicle). The cells were incubated for 48 h at 37 °C and 5% CO2 atmosphere. Absorbance was read at 570 nm and cell viability (%) of macrophages was obtained by the following formula: % viable cells = [(AUSample)/AU0.06% DMSO] × 100, where: AUSample: Absorbance was measured after treatment of cells with the sample; AU0.06% DMSO: Absorbance was measured after treatment of cells with 0.06% DMSO. The experiment was performed in triplicate.

[7] = Plasmodium falciparum, W2 strain (chloroquine-resistant), SYBR test, triplicate, read-out: P. falciparum IC50 ± SD
[8] = WI26VA4, human fibroblasts, MTT, 48 h, highest concentration 100 μM
[9] = suppressive treatment regimen, 10 mg/kg oral

| Molecule | % Reduction of parasitemia, 7th dpi [2] | Parasitemia ± SD, 7th dpi [2] | Parasitemia ± SD, 5th dpi [4] | % Reduction of parasitemia, 7th dpi [4] | Parasitemia ± SD, 7th dpi [4] | IC50 [1, 7] | SI (selectivity index) [1] | % Reduction of parasitemia, 5th dpi [2] | Parasitemia ± SD, 5th dpi [2] | IC50 [3, 8] | Prevention of the development of CM (share of animals) ([2]; 10 mg/kg oral) | also measured |
| --- | --- | --- | --- | --- | --- | --- | --- | --- | --- | --- | --- | --- |
| CCN(CC)CCCC(C)Nc1ccnc2cc(Cl)ccc12 (stereo not drawn) [CQ, chloroquine, reference compound] | 96.1% | 0.21 ± 0.27 | 0.24 ± 0.05 | 96.1% | 0.21 ± 0.27 | – | – | – | – | – | – | IC50 ([1]; Plasmodium falciparum, W2, read-out: P. falciparum IC50 ± SD): 590 ± 15 nM; IC50 ([3]; Homo sapiens, WI26VA4, 48 h): > 100000 nM; % Reduction of parasitemia, 5th dpi [4]: 96.5% |
| COC(=O)[C@@H]1Cc2c([nH]c3ccccc23)[C@H](c2ccccc2OC)N1 [Compound 3, Methyl (1S,3S)-1-(2-Methoxy)-2,3,4,9-tetrahydro-1H-pyrido[3,4-b]indole-3-carboxylate] | 0% | 7.50 ± 2.49 | 3.56 ± 2.57 | 0% | 7.96 ± 3.26 | 710 ± 12 nM | >141 | 41.19% | 1.87 ± 1.02 | > 100000 nM | – | % Reduction of parasitemia, 5th dpi [4]: 0.00%; Inhibition of parasite growth (in words) [4, 9]: not effective |
| COC(=O)[C@@H]1Cc2c([nH]c3ccccc23)[C@@H](c2ccccc2OC)N1 [Compound 4, Methyl (1R,3S)-1-(2-Methoxy)-2,3,4,9-tetrahydro-1H-pyrido[3,4-b]indole-3-carboxylate] | 20.00% | 5.48± 3.64 | 1.88 ± 2.46 | 9.78% | 6.18 ± 4.75 | 1040 ± 21 nM | >96 | 75.16% | 0.79 ± 0.63 | > 100000 nM | – | Animals alive until the 14th dpi (without CM) ([2]; 10 mg/kg oral): 90%; % Reduction of parasitemia, 5th dpi ([4]; 10 mg/kg): 40% and 40.88%; Protection against CM (share of animals) [4, 9]: 60% |
| COC(=O)[C@@H]1Cc2c([nH]c3ccccc23)[C@H](c2ccccc2Cl)N1 [Compound 5, Methyl (1S,3S)-1-(2-Chloro)-2,3,4,9-tetrahydro-1H-pyrido[3,4-b]indole-3-carboxylate] | 0% | 7.20 ± 4.57 | – | – | – | 1410 ± 18 nM | >71 | 0.00% | 5.00 ± 1.59 | > 100000 nM | No protective effect | – |
| COC(=O)[C@@H]1Cc2c([nH]c3ccccc23)[C@@H](c2ccccc2Cl)N1 [Compound 6, Methyl (1R,3S)-1-(2-Chloro)-2,3,4,9-tetrahydro-1H-pyrido[3,4-b]indole-3-carboxylate] | – | – | – | – | – | 670 ± 19 nM | >149 | 64.36% | 1.13 ± 0.48 | > 100000 nM | No protective effect | – |
| CCN(CC)c1ccc(C2NCCc3c2[nH]c2ccccc32)c(O)c1 (stereo not drawn) [Compound 8, 5-(Diethylamino)-2-(2,3,4,9-tetrahydro-1H-pyrido[3,4-b]indol-1-yl)phenol] | – | – | – | – | – | 1820 ± 11 nM | >55 | – | – | > 100000 nM | – | – |
| COc1cc(C2NCCc3c2[nH]c2ccccc32)cc(OC)c1OC (stereo not drawn) [Compound 9, 1-(3,4,5-Trimethoxyphenyl)-2,3,4,9-tetrahydro-1H-pyrido[3,4-b]indole] | – | – | – | – | – | 1120 ± 14 nM | >89 | – | – | > 100000 nM | – | – |
| COc1cc(-c2nccc3c2[nH]c2ccccc23)cc(OC)c1OC [Compound 10, 1-(3,4,5-Trimethoxyphenyl)-9H-pyrido[3,4-b]indole] | 0% | 8.37 ± 2.26 | 0.57 ± 0.94 | 45.69% | 3.72 ± 3.93 | 510 ± 11 nM | >196 | – | 1.02 ± 0.93 | > 100000 nM | 70% | % Reduction of parasitemia, 5th dpi ([2]; 10 mg/kg): 67.9% and 67.92%; % Reduction of parasitemia, 5th dpi ([4]; 10 mg/kg): 82% and 82.07%; NO levels (nitrite equivalent) [5]: reduce NO levels at all concentrations tested; Toxicity for peritoneal macrophages (cell viability, MTT) [6]: no toxicity |
| artemisinin [reference compound] | – | – | – | – | – | – | – | – | – | – | – | IC50 ([1]; W2 strain (chloroquine-resistant), SYBR test, triplicate, read-out: P. falciparum IC50 ± SD): 95 ± 10 nM; IC50 ([3]; human fibroblasts, MTT, 48 h, highest concentration 100 μM): > 100000 nM |

Reference: publication PMC9781199, “Rational-Based Discovery of Novel β-Carboline Derivatives as Potential Antimalarials: From In Silico Identification of Novel Targets to Inhibition of Experimental Cerebral Malaria” (Pathogens, 2022)
